Test results taken from ChEMBL document CHEMBL1121712, “Permethyl analogue of the pyrrolic antibiotic distamycin A” (J Med Chem, 1981).

How the values were obtained:
[1] = Dissociation constant was determined; format: physicochemical
Mus musculus = organism: Mus musculus; test: Mean survival time at a dose of 25 ug/mL in mouse fibroblasts and Maloney sarcoma transplanted 3T3 fibroblasts by using Rane assay; Nontoxic; format: functional, organism-based
Plasmodium berghei = test: Mean survival time in blood schizonticidal screen against Plasmodium berghei at 640 mg/kg by Rane assay; Non-toxic; format: functional, organism-based; parameters: dose 640 mg/kg

| Structure (SMILES) | pKa [1] | Mean survival time (Mus musculus) | Mean survival time (Plasmodium berghei) |
| --- | --- | --- | --- |
| Cc1c([N+](=O)[O-])c(C)n(C)c1C(=O)O | 5.5 | – | – |
| Cc1c(NC=O)c(C)n(C)c1C(=O)Nc1c(C)c(C(=O)NCCC(=N)N)n(C)c1C | – | Non-toxic | Non-toxic |
| Cc1c(NC=O)c(C)n(C)c1C(=O)NCCC(=N)N | – | Non-toxic | Non-toxic |
